For data set [1], the target named is 5-hydroxytryptamine receptor 6 (Homo sapiens, UniProt P50406). Description: biochemical.
Description: Displacement of [3H]-LSD from human recombinant 5-HT6 receptor expressed in CHOK1 cell membranes measured after 60 mins by scintillation counter
Data set [2] addresses Cholinesterase (Equus caballus) (UniProt P81908). Put plainly: Inhibition of equine serum BuChE at 10 uM preincubated for 5 mins followed by butyrylthiocholine iodide substrate addition measured after 5 mins by Ellman's method relative to control.
For data set [3] the following is noted: PAMPA, 2 h. (In PAMPA a lipid-coated filter parts donor from acceptor wells.)
Data set [4] deals with Cholinesterase (Equus caballus, UniProt P81908).
Description: Inhibition of equine serum BuChE preincubated for 5 mins followed by butyrylthiocholine iodide substrate addition measured after 5 mins by Ellman's method
Data set [5] deals with Acetylcholinesterase (Electrophorus electricus, UniProt O42275).
Description: Inhibition of electric eel AChE preincubated for 5 mins followed by acetylthiocholine iodide substrate addition measured after 5 mins by Ellman's method
In data set [6] the target is Acetylcholinesterase (Homo sapiens, UniProt P22303). Description: Inhibition of human recombinant AChE preincubated for 5 mins followed by acetylthiocholine iodide substrate addition measured after 5 mins by Ellman's method.
Data set [7] concerns the target Acetylcholinesterase (Electrophorus electricus) (UniProt O42275). Put plainly: Non-competitive inhibition of electric eel AChE at 30 to 120 nM using varying levels of acetylthiocholine iodide substrate preincubated for 5 mins followed by substrate addition measured after 5 mins by Line-weaver burk plot method.
Data set [8] concerns the target Cholinesterase (Homo sapiens, UniProt P06276). Put plainly: Inhibition of human recombinant BuChE preincubated for 5 mins followed by butyrylthiocholine iodide substrate addition measured after 5 mins by Ellman's method.
Data set [9] concerns Rattus norvegicus. Description: Reduction in spontaneous locomotor activity in Wistar rat at 10 mg/kg, ip pretreated for 30 to 180 mins by open field assay. The data set is classed as functional, organism-based.
The test system of data set [10] is Rattus norvegicus. Put plainly: Reduction in spontaneous locomotor activity in ip dosed Wistar rat pretreated for 30 mins by open field assay. The format is functional, organism-based.
A short description of data set [11]: Reduction of spontaneous locomotor activity below baseline in Wistar rat at 10 mg/kg, ip in presence of scopolamine by open field assay. The data set is classed as ADME, organism-based. The following applies: in vivo.
For data set [12], the target named is Cholinesterase (Equus caballus) (UniProt P81908). The following applies: 9 to 30 nM.
Data set [13] concerns Rattus norvegicus. Description: Reversal of scopolamine-induced hyperlocomotion in ip dosed Wistar rat. The format is functional, organism-based.

Calls of active or inactive are those of the source. The rule behind the calls is not given here.

Sequence of Acetylcholinesterase (Homo sapiens, UniProt P22303) (P22303 whole entry): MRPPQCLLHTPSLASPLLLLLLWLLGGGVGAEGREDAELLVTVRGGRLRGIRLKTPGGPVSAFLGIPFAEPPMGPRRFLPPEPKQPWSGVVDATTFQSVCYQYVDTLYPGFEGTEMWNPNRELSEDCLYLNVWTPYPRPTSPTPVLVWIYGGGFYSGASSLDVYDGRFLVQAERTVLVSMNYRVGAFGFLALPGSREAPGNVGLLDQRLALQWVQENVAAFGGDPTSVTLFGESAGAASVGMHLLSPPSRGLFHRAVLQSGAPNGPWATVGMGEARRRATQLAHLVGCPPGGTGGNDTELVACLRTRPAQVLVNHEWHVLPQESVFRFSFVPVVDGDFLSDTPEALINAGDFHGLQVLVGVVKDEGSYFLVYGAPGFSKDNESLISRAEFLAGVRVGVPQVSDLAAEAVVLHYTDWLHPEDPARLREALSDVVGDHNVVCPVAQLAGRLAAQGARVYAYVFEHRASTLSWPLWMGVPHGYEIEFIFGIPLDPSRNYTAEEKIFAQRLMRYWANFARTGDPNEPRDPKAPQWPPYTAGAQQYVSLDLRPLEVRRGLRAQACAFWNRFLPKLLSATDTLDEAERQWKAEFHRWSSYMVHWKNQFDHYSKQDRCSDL
Sequence of Acetylcholinesterase (Electrophorus electricus, UniProt O42275) (O42275 whole entry): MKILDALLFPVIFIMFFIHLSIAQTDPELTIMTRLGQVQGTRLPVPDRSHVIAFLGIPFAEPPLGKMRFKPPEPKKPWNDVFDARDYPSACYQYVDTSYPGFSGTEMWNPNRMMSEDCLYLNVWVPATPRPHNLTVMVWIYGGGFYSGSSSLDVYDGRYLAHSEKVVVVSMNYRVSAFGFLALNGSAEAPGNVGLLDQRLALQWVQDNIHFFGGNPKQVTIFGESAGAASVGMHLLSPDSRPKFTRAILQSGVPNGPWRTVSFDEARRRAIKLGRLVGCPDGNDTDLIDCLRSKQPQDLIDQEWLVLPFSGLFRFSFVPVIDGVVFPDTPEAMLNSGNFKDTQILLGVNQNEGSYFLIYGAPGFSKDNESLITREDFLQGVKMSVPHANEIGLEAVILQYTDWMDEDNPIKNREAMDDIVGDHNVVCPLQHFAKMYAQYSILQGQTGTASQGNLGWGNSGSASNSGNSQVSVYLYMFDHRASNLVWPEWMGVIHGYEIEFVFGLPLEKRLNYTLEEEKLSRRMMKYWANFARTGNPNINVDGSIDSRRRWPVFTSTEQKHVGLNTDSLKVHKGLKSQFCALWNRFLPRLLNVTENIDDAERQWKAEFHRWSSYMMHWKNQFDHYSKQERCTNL
Sequence of 5-hydroxytryptamine receptor 6 (P50406 whole entry): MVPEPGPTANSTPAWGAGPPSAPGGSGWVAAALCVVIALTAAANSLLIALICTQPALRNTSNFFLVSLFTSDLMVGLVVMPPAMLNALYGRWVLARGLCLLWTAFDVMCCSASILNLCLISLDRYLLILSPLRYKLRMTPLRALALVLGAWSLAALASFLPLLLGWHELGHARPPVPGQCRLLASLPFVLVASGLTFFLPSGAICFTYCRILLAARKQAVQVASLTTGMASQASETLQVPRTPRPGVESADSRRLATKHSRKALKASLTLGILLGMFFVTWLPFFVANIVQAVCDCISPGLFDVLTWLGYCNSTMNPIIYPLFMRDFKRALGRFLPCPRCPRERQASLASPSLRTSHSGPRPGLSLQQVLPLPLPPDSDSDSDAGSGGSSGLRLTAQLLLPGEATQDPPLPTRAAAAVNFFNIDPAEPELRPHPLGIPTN
Sequence of Cholinesterase (Equus caballus) (P81908 whole entry): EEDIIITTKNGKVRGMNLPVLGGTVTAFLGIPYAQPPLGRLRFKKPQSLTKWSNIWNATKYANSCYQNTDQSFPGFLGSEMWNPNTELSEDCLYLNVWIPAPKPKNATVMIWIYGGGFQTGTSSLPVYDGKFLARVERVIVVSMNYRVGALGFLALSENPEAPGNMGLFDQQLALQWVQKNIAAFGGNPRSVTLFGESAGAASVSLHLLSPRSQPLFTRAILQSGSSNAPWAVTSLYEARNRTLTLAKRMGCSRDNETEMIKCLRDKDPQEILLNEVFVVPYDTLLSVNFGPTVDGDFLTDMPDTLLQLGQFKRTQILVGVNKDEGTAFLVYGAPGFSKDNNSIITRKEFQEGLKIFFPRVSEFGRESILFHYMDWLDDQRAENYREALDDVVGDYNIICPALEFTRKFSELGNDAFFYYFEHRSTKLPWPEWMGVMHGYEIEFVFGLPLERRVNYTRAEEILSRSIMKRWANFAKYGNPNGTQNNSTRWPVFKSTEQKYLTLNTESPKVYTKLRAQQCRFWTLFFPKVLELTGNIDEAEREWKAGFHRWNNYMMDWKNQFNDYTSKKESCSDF
Sequence of Cholinesterase (Equus caballus, UniProt P81908) (P81908 whole entry): as above
Sequence of Cholinesterase (Homo sapiens, UniProt P06276) (P06276 whole entry): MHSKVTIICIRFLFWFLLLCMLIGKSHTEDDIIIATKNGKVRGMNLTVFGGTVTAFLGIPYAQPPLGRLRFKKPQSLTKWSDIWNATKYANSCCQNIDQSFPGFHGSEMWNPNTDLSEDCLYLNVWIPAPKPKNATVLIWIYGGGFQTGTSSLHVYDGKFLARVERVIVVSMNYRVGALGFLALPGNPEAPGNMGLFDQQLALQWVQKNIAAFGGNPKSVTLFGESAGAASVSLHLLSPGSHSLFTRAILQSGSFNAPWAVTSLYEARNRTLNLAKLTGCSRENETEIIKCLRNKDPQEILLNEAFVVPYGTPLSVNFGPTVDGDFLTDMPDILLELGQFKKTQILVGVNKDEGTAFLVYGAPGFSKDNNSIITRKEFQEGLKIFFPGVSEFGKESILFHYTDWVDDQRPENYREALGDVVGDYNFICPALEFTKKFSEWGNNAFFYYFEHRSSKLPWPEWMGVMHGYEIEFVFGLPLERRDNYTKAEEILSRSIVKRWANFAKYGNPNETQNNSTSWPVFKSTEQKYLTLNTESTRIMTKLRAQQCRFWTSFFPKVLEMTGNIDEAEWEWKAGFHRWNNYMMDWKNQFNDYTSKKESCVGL
Sequence of Acetylcholinesterase (Electrophorus electricus) (O42275 24-633 limits assumed): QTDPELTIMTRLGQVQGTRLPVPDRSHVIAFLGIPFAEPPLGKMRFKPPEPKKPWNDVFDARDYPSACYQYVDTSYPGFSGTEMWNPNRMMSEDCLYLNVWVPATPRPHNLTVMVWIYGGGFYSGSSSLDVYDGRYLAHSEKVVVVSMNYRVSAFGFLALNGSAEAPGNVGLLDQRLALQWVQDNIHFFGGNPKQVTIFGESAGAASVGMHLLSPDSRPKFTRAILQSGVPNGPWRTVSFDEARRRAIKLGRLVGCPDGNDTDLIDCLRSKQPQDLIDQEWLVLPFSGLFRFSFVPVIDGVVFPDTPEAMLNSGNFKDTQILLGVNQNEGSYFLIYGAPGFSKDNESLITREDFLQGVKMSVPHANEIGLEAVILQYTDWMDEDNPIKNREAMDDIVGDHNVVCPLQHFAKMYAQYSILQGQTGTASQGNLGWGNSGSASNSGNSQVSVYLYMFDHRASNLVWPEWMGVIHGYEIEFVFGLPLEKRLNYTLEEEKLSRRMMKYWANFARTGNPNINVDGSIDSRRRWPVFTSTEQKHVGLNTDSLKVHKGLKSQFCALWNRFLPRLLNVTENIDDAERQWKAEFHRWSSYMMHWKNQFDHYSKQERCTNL

What is called Ki is a measure of affinity in units of concentration, obtained from inhibition or displacement. Low values mean higher affinity, high ones lower affinity. By inhibition is commonly meant the drop in the measured response relative to a control, in per cent. As to `CN(CCCN1CCN(c2cccc3c2ccn3S(=O)(=O)c2ccccc2)CC1)Cc1ccccc1`, the affinity in data set [1] corresponds to a Ki of 10 nM. The compound also came in with an inhibition in data set [2] of 27.8%.
Compound `CC(C)NCC(O)COc1cccc2ccccc12` (stereo unspecified) [PROPRANOLOL] returned a logPeff in data set [3] of -3.7.
What is called IC50 is the concentration at which inhibition is half-maximal. As to `O=S(=O)(c1ccccc1)n1ccc2c(N3CCN(CCCNCc4ccccc4)CC3)cccc21`, the Ki in data set [1] amounted to 16 nM. In addition, in data set [4], the IC50 amounted to 608 nM.
`O=S(=O)(c1ccccc1)n1ccc2c(N3CCN(CCCCNC4CCN(Cc5ccccc5)CC4)CC3)cccc21` yielded a Ki in data set [1] of 16 nM. For the same compound, it took 2160 nM to reach half-maximal inhibition in data set [4] (IC50).
In data set [1], `CN(CCCCN1CCN(c2cccc3c2ccn3S(=O)(=O)c2ccccc2)CC1)Cc1ccccc1` gave an inhibitory constant (Ki) of 4 nM. Also, the IC50 in data set [4] was 6220 nM.
As for `O=S(=O)(c1ccccc1)n1ccc2c(N3CCN(CCCNc4c5c(nc6ccccc46)CCCC5)CC3)cccc21`, in data set [1], the Ki was 6 nM. Further, the IC50 in data set [5] is 12.1 nM; in data set [6], 9.7 nM; in [4], 14.2 nM.
In turn, `O=S(=O)(c1ccccc1)n1ccc2c(N3CCN(CCCCNCc4ccccc4)CC3)cccc21` returned a Ki in data set [1] of 8 nM. The compound further displayed an IC50 in data set [4] of 2210 nM.
In the case of `O=S(=O)(c1ccccc1)n1ccc2c(N3CCN(CCCCCNCc4ccccc4)CC3)cccc21`, the Ki in data set [1] came out at 8 nM. For the same compound, the IC50 amounted to 4410 nM in data set [5] and 1670 nM in [4].
For the compound `O=S(=O)(c1ccccc1)n1ccc2c(N3CCN(CCCCCNc4c5c(nc6ccccc46)CCCC5)CC3)cccc21`, the inhibition constant (Ki) in data set [1] came to 8 nM. Further, the IC50 is 57 nM in data set [5], 18.2 nM in data set [6] and 21.3 nM in data set [4].
With `CC(=O)[C@H]1CC[C@H]2[C@@H]3CCC4=CC(=O)CC[C@]4(C)[C@H]3CC[C@]12C` [PROGESTERONE], the logPeff in data set [3] was -3.8.
With `O=S(=O)(c1ccccc1)n1ccc2c(N3CCN(CCCCCCCCNc4c5c(nc6ccccc46)CCCC5)CC3)cccc21`, the Ki in data set [1] turned out to be 36 nM. In addition, the IC50 turned out to be 7.1 nM in [5], 1.3 nM in data set [6] and 12.4 nM in [4].
On the same counts, the results for `O=S(=O)(c1ccccc1)n1ccc2c(N3CCN(CCNc4c5c(nc6ccccc46)CCCC5)CC3)cccc21` are 10 nM, 7.5 nM, 43.6 nM and 16.8 nM.
On to `CN(CCN1CCN(c2cccc3c2ccn3S(=O)(=O)c2ccccc2)CC1)Cc1ccccc1`, for which the Ki in data set [1] came out at 15 nM. Moreover, half-maximal inhibition in [4] (IC50) was put at 1950 nM.
On the same counts, the results for `O=S(=O)(c1ccccc1)n1ccc2c(N3CCN(CCNC4CCN(Cc5ccccc5)CC4)CC3)cccc21` are 39 nM and 10600 nM.
On the same counts, the results for `O=S(=O)(c1ccccc1)n1ccc2c(N3CCN(CCCNC4CCN(Cc5ccccc5)CC4)CC3)cccc21` are 2 nM and 3220 nM.
On the same counts, the results for `O=S(=O)(c1ccccc1)n1ccc2c(N3CCN(CCNC4CCN(Cc5ccccc5)C4)CC3)cccc21` (stereo unspecified) are 13 nM and 3390 nM.
As for `O=S(=O)(c1ccccc1)n1ccc2c(N3CCN(CCNCc4ccccc4)CC3)cccc21`, in [1], the Ki turned out to be 12 nM. For the same compound, in data set [4], the IC50 came out at 1310 nM.
On to `O=S(=O)(c1ccccc1)n1ccc2c(N3CCN(CCCCCCCNc4c5c(nc6ccccc46)CCCC5)CC3)cccc21`, for which the affinity in data set [1], expressed as Ki, was 36 nM. Moreover, the IC50 turned out to be 15.1 nM in data set [5], 6.2 nM in [6] and 10 nM in [4].
In data set [1], `O=S(=O)(c1ccccc1)n1ccc2c(N3CCN(CCCCCCNCc4ccccc4)CC3)cccc21` gave a Ki of 2 nM. This compound came in with an IC50 in data set [4] of 2380 nM.
The compound `O=S(=O)(c1ccccc1)n1ccc2c(N3CCNCC3)cccc21` displayed an inhibition in data set [2] of 45.8%.
`CN(CCCCCN1CCN(c2cccc3c2ccn3S(=O)(=O)c2ccccc2)CC1)Cc1ccccc1` showed an inhibition constant (Ki) in [1] of 10 nM. For the same compound, in data set [4], the IC50 was determined as 3070 nM.
In data set [1], `O=S(=O)(c1ccccc1)n1ccc2c(N3CCN(CCCCCCNc4c5c(nc6ccccc46)CCCC5)CC3)cccc21` had a Ki of 2 nM. Further, the IC50 in data set [5] was 45.9 nM; in data set [8] it was 29.7 nM; in data set [6] it was 12.9 nM; in data set [4] it was 8.2 nM. For the same compound, the inhibition result in [7] and in data set [12] was “Active” each time. The outcome in data set [9] was Active. The Activity entry in data set [10] is “Dose-dependent effect”; in data set [11], “Non-Toxic”; in [13], “Dose-dependent effect”.

These data come from ChEMBL document CHEMBL3875143, “Novel multi-target-directed ligands for Alzheimer's disease: Combining cholinesterase inhibitors and 5-HT6 receptor antagonists. Design, synthesis and biological evaluation” (Eur J Med Chem, 2016).
